Patent US7632829B2, “Diazepan derivatives” (Hoffmann-La Roche Inc., priority 2006, dated 2009)

Molecular target: T1, human chemokine receptor 2 isoform B (Homo sapiens, UniProt P41597)
T1 construct: host or cells: CHOK1-CCR2B-A5 (CHO-K1)
T1 sequence (P41597 1-360 isoform P41597-2): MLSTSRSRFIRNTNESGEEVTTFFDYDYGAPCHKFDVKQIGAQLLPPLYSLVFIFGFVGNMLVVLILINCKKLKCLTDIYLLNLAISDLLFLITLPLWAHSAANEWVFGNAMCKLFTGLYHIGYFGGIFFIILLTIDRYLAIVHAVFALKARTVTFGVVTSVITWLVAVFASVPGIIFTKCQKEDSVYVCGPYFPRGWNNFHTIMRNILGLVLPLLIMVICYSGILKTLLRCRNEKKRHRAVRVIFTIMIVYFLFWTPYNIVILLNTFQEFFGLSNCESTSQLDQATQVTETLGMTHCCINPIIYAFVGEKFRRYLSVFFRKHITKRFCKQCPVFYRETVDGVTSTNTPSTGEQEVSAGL
Assay: Calcium mobilization assay (FLIPR, CHOK1-CCR2B-A5 cells, 20 nM MCP-1)
Format: cell-based
Details: Ca mobilisation assay, CCR2, antagonist activity vs 20 nM MCP-1
How it was run: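 Antagonism read as IC50 against 20 nM MCP-1-evoked calcium rise (peak minus baseline Fluo-4 signal, FLIPR) in CCR2B-overexpressing CHO-K1 cells. Compounds were preincubated 20-30 min at 30 °C, with agonist activity recorded for 80 s on addition.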

Row | Structure (SMILES) | IC50 [nM]
1 | COCC1CCC(O)CN1CCCCN1CCN(C(=O)/C=C/c2ccc(Cl)c(F)c2)CCC1=O (racemic) [Example 418] | 1470
2 | O=C(/C=C/c1ccc(Cl)c(F)c1)N1CCC(=O)N(CCCCN2CCC[C@H](O)[C@@H]2CO)CC1 (racemic) [Example 419] | 250
3 | CC1(C)CCN(CCCCN2CCN(C(=O)/C=C/c3ccc(Cl)c(F)c3)CCC2=O)CC1O (racemic) [Example 420] | 52
4 | O=C(/C=C/c1ccc(Cl)c(Cl)c1)N1CCC(=O)N(CCCCN2CCCC(CO)C2)CC1 (racemic) [Example 425] | 89
5 | O=C(/C=C/c1ccc(Cl)c(Cl)c1)N1CCC(=O)N(CCCCN2CCCCC2CO)CC1 (racemic) [Example 427, (rac)-1-[(E)-3-(3,4-Dichloro-phenyl)-acryloy]-4-[4-(2-hydroxymethyl-piperidin-1-yl)-butyl]-[1,4]diazepan-5-one] | 259
6 | O=C(/C=C/c1ccc(Cl)c(Cl)c1)N1CCC(=O)N(CCCCN2CC[C@@H](O)[C@@H](F)C2)CC1 (racemic) [Example 430, (rac,cis)-1-[(E)-3-(3,4-Dichloro-phenyl)-acryloyl]-4-[4-(3-fluoro-4-hydroxy-piperidin-1-yl)-butyl]-[1,4]diazepan-5-one] | 352
7 | CC1(O)CCCN(CCCCN2CCN(C(=O)/C=C/c3ccc(Cl)c(Cl)c3)CCC2=O)C1 (racemic) [Example 431] | 448
8 | COCC1CCCN(CCCCN2CCN(C(=O)/C=C/c3ccc(Cl)c(Cl)c3)CCC2=O)C1 (racemic) [Example 432] | 16
9 | O=C(/C=C/c1ccc(Cl)c(Cl)c1)N1CCC(=O)N(CCCCN2CCC(O)C2)CC1 (racemic) [Example 433] | 244
10 | COC1CCCN(CCCCN2CCN(C(=O)/C=C/c3ccc(Cl)c(Cl)c3)CCC2=O)C1 (racemic) [Example 435] | 281
11 | CC1CN(CCCCN2CCN(C(=O)/C=C/c3ccc(Cl)c(Cl)c3)CCC2=O)CCC1O (racemic) [Example 440] | 103
12 | CC1(CO)CCCN(CCCCN2CCN(C(=O)/C=C/c3ccc(Cl)c(Cl)c3)CCC2=O)C1 (racemic) [Example 445] | 354
13 | COCC1(C)CCCN(CCCCN2CCN(C(=O)/C=C/c3ccc(Cl)c(Cl)c3)CCC2=O)C1 (racemic) [Example 446] | 626
14 | CC1(CO)CCCCN1CCCCN1CCN(C(=O)/C=C/c2ccc(Cl)c(Cl)c2)CCC1=O (racemic) [Example 447] | 92
15 | CC1CCN(CCCCN2CCN(C(=O)/C=C/c3ccc(Cl)c(Cl)c3)CCC2=O)CC1O (racemic) [Example 448] | 181
16 | O=C(/C=C/c1ccc(Cl)c(Cl)c1)N1CCC(=O)N(CCCCN2CCC(O)C(CO)C2)CC1 (racemic) [Example 450, (rac)-1-[(E)-3-(3,4-Dichloro-phenyl)-acryloyl]-4-[4-(4-hydroxy-3-hydroxymethyl-piperidin-1-yl)-butyl]-[1,4]diazepan-5-one] | 243
17 | COCC1CN(CCCCN2CCN(C(=O)/C=C/c3ccc(Cl)c(Cl)c3)CCC2=O)CCC1O (racemic) [Example 451] | 682
18 | C[C@@H]1CCN(CCCCN2CCN(C(=O)/C=C/c3ccc(Cl)c(Cl)c3)CCC2=O)C[C@H]1O (racemic) [Example 454, (rac)-1-[(E)-3-(3,4-Dichloro-phenyl)-acryloyl]-4-[4-(trans-3-hydroxy-4-methyl-piperidin-1-yl)-butyl]-[1,4]diazepan-5-one] | 230
19 | C[C@@H]1CN(CCCCN2CCN(C(=O)/C=C/c3ccc(Cl)c(Cl)c3)CCC2=O)CC[C@H]1O (racemic) [Example 455, (rac)-1-[(E)-3-(3,4-Dichloro-phenyl)-acryloyl]-4-[4-(trans-4-hydroxy-3-methyl-piperidin-1-yl)-butyl]-[1,4]diazepan-5-one] | 106
20 | O=C(/C=C/c1ccc(Cl)c(Cl)c1)N1CCC(=O)N(CCCCN2CCC3(CC3)C(O)C2)CC1 (racemic) [Example 456] | 16
21 | O=C(/C=C/c1ccc(Cl)c(Cl)c1)N1CCC(=O)N(CCCCN2CCC(O)C3(CC3)C2)CC1 (racemic) [Example 457] | 283
22 | C[C@@H]1CN(CCCCN2CCN(C(=O)/C=C/c3ccc(Cl)c(Cl)c3)CCC2=O)CC[C@@H]1O (racemic) [Example 458] | 148
23 | CC1(CO)CCN(CCCCN2CCN(C(=O)/C=C/c3ccc(Cl)c(Cl)c3)CCC2=O)CC1 (racemic) [Example 459] | 267
24 | CC1(CO)CCCN1CCCCN1CCN(C(=O)/C=C/c2ccc(Cl)c(Cl)c2)CCC1=O (racemic) [Example 462] | 41
25 | CC1(C)CN(CCCCN2CCN(C(=O)/C=C/c3ccc(Cl)c(Cl)c3)CCC2=O)CCC1O (racemic) [Example 464] | 226
26 | CC(=O)NC1CCCN(CCCCN2CCN(C(=O)/C=C/c3ccc(Cl)c(Cl)c3)CCC2=O)C1 (racemic) [Example 466] | 389

Row | Structure (SMILES) | IC50 [nM]
27 | O=C(/C=C/c1ccc(Cl)c(Cl)c1)N1CCC(=O)N(CCCCN2CCC3(CCCO3)CC2)CC1 (racemic) [Example 467] | 1160
28 | O=C(/C=C/c1ccc(Cl)c(Cl)c1)N1CCC(=O)N(CCCCN2CC[C@H](CO)[C@H](O)C2)CC1 (racemic) [Example 468] | 347
29 | COC[C@H]1CCN(CCCCN2CCN(C(=O)/C=C/c3ccc(Cl)c(Cl)c3)CCC2=O)C[C@H]1O (racemic) [Example 469] | 61
30 | COC[C@H]1CCN(CCCCN2CCN(C(=O)/C=C/c3ccc(Cl)c(Cl)c3)CCC2=O)C[C@H]1OC (racemic) [Example 470] | 85
31 | O=C(/C=C/c1ccc(Cl)c(Cl)c1)N1CCC(=O)N(CCCCN2CC[C@@H](CO)[C@H](O)C2)CC1 (racemic) [Example 471] | 43
32 | CO[C@@H]1CN(CCCCN2CCN(C(=O)/C=C/c3ccc(Cl)c(Cl)c3)CCC2=O)CC[C@@H]1CO (racemic) [Example 472] | 418
33 | CC1CCC(O)CN1CCCCN1CCN(C(=O)/C=C/c2ccc(Cl)c(Cl)c2)CCC1=O (racemic) [Example 475] | 20
34 | O=C(/C=C/c1ccc(Cl)c(Cl)c1)N1CCC(=O)N(CCCCN2CC(O)CCC2CO)CC1 (racemic) [Example 476] | 18
35 | COC1CCC(CO)N(CCCCN2CCN(C(=O)/C=C/c3ccc(Cl)c(Cl)c3)CCC2=O)C1 (racemic) [Example 477] | 313
36 | COCC1CC(OC)C(O)CN1CCCCN1CCN(C(=O)/C=C/c2ccc(Cl)c(Cl)c2)CCC1=O (racemic) [Example 478] | 998
37 | COCC1CCC(O)CN1CCCCN1CCN(C(=O)/C=C/c2ccc(Cl)c(Cl)c2)CCC1=O (racemic) [Example 479] | 232
38 | O=C(/C=C/c1ccc(Cl)c(Cl)c1)N1CCC(=O)N(CCCCN2CCC[C@H](O)[C@@H]2CO)CC1 (racemic) [Example 480] | 53
39 | CC1(C)CCN(CCCCN2CCN(C(=O)/C=C/c3ccc(Cl)c(Cl)c3)CCC2=O)CC1O (racemic) [Example 481] | 9
40 | NC(=O)COC1CCC(CO)N(CCCCN2CCN(C(=O)/C=C/c3ccc(Cl)c(Cl)c3)CCC2=O)C1 (racemic) [Example 485] | 75
41 | COCC1C(O)CCCN1CCCCN1CCN(C(=O)/C=C/c2ccc(Cl)c(Cl)c2)CCC1=O (racemic) [Example 486] | 205
42 | CC1CCC(O)CN1CCCCN1CCN(C(=O)/C=C/c2ccc(Cl)c(Cl)c2)CCC1=O (racemic) [Example 487] | 14
43 | COCC1C(O)CCC(C)N1CCCCN1CCN(C(=O)C=Cc2ccc(Cl)c(Cl)c2)CCC1=O (racemic) [Example 488, (rac,cis)-1-[(E)-3-(3,4-Dichloro-phenyl)-acryloyl]-4-[4-(3-hydroxy-2-methoxymethyl-6-methyl-piperidin-1-yl)-butyl]-[1,4]diazepan-5-one] | 618
44 | CC1(C)CCN(CC(O)CN2CCN(C(=O)/C=C/c3ccc(F)c(F)c3)CCC2=O)CC1O (racemic) [Example 499] | 84
45 | C[C@@H]1C[C@H](O)CN(CC(O)CN2CCN(C(=O)/C=C/c3ccc(F)c(F)c3)CCC2=O)C1 (mixture of isomers) [Example 504] | 316
46 | O=C(/C=C/c1ccc(Cl)c(Cl)c1)N1CCC(=O)N(CC(O)CN2CC[C@H](O)[C@H](F)C2)CC1 (relative stereo) [Example 287] | 848
47 | C[C@H]1[C@H](O)CCCN1CC(O)CCN1CCN(C(=O)/C=C/c2ccc(Cl)c(Cl)c2)CCC1=O (relative stereo) [Example 362] | 504
48 | O=C(/C=C/c1ccc(F)c(Cl)c1)N1CCC(=O)N(CCCCN2CC[C@H](F)[C@@H](O)C2)CC1 (relative stereo) [Example 389] | 323
49 | CC1CCN(CCCN2CCN(C(=O)/C=C/c3ccc(F)c(Cl)c3)CCC2=O)CC1O (single isomer, unassigned) [Example 191, 1-[(E)-3-(3-Chloro-4-fluoro-phenyl)-acryloyl]-4-[3-((−, cis)-3-hydroxy-4-methyl-piperidin-1-yl)-propyl]-[1,4]diazepan-5-one] | 25
50 | CC1CCN(CCCN2CCN(C(=O)C=Cc3ccc(Cl)c(Cl)c3)CCC2=O)CC1O (single isomer, unassigned) [Example 259, 1-[(E)-3-(3,4-Dichloro-phenyl)-acryloyl]-4-[3-((+, cis)-3-hydroxy-4-methyl-piperidin-1-yl)-propyl]-[1,4]diazepan-5-one] | 57
51 | CC1CCN(CCCN2CCN(C(=O)C=Cc3ccc(Cl)c(Cl)c3)CCC2=O)CC1O (single isomer, unassigned) [Example 260, 1-[(E)-3-(3,4-Dichloro-phenyl)-acryloyl]-4-[3-((−, cis)-3-hydroxy-4-methyl-piperidin-1-yl)-propyl]-[1,4]diazepan-5-one] | 9
